The values that follow come from patent US20250154144A1 (CHILDREN'S HOSPITAL MEDICAL CENTER, priority 2021, published 2025).

The target in assay [1] is T1, IRAK1 (Homo sapiens, UniProt P51617). The assay is described as follows: RBC HotSpot Kinase Assay, IRAK1. Particulars: IRAK1 IC50.
In assay [2] the target is T2, IRAK4 (Homo sapiens, UniProt Q9NWZ3).
T2 sequence (Q9NWZ3 1-460): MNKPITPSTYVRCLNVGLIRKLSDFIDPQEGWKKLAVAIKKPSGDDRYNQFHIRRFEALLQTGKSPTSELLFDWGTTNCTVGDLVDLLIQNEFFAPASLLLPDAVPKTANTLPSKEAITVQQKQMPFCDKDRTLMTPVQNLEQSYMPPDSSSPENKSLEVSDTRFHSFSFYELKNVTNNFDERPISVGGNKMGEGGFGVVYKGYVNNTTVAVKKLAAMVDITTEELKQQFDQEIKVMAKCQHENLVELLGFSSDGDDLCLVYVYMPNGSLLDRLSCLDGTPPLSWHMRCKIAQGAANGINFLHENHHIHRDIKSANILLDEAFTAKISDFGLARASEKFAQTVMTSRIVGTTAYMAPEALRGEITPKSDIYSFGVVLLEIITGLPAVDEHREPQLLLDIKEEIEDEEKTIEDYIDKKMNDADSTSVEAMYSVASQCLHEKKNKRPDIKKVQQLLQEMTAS
The assay is described as follows: RBC HotSpot Kinase Assay, IRAK4. Particulars: IRAK4 IC50.

The test system of a further assay is MOLM14 D835Y cells. The experiment in a line: cells. The class given is cell-based. The note with it: Homo sapiens, MOLM-14, 48 h, 48 hours, Cell Titer Glo; read-out: MOLM14 D835Y IC50. In general terms: Cellular ATP, detected with luciferase, serves as a proxy for viable cell number.
Another assay has as its system MOLM14 F691L cells. The experiment in a line: cells. It is filed as cell-based. Particulars: Homo sapiens, MOLM-14, 48 h, 48 hours, Cell Titer Glo; read-out: MOLM14 F691L IC50.
For assay [3], the target named is T2, IRAK4. The assay is described as follows: DiscoverX KINOMEscan competition binding, IRAK4. Also noted: purchased RBC (Reaction Biology) HotSpot assay.
The target in assay [4] is T1, IRAK1. The experiment in a line: DiscoverX KINOMEscan competition binding, IRAK1. Also noted: purchased RBC (Reaction Biology) HotSpot assay.
A further assay has as its system MOLM14(D835Y) cells. The class given is cell-based. The note with it: MOLM14(D835Y) cells; for Excess HSA Score: 10 × 10.
For assay [5], the target named is T3, FLT3 (Homo sapiens, UniProt P36888).
T3 sequence (P36888 610-943 limits assumed): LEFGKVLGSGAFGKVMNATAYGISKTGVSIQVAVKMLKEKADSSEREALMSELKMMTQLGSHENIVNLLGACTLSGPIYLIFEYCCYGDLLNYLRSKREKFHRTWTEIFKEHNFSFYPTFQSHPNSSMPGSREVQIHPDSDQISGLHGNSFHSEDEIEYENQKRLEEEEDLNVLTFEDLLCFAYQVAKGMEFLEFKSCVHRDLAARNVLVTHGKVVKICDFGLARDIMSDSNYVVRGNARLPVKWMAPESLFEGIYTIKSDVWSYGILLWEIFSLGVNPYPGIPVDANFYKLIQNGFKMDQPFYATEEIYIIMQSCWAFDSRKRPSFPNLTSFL
The assay is described as follows: RBC HotSpot Kinase Assay, FLT3. Particulars: FLT3 IC50.

A further assay deals with THP1 cells. The assay is described as follows: Combination drug screening, Cell Titer Glo, 10 × 10 matrix, THP1 cells. The class given is cell-based. Particulars: THP1 cells; for Excess HSA Score: 10 × 10.
Assay [6] deals with T2, IRAK4. The assay is described as follows: Reaction Biology NanoBRET target engagement assay in HEK-293 cells, IRAK4. Particulars: NanoBRET IRAK4 IC50, HEK-293 cells. A general note: Bioluminescence resonance energy transfer reports proximity on the nanometre scale.
Assay [7] deals with T4, FLT3 (Homo sapiens, UniProt P36888).
T4 sequence (P36888 27-993): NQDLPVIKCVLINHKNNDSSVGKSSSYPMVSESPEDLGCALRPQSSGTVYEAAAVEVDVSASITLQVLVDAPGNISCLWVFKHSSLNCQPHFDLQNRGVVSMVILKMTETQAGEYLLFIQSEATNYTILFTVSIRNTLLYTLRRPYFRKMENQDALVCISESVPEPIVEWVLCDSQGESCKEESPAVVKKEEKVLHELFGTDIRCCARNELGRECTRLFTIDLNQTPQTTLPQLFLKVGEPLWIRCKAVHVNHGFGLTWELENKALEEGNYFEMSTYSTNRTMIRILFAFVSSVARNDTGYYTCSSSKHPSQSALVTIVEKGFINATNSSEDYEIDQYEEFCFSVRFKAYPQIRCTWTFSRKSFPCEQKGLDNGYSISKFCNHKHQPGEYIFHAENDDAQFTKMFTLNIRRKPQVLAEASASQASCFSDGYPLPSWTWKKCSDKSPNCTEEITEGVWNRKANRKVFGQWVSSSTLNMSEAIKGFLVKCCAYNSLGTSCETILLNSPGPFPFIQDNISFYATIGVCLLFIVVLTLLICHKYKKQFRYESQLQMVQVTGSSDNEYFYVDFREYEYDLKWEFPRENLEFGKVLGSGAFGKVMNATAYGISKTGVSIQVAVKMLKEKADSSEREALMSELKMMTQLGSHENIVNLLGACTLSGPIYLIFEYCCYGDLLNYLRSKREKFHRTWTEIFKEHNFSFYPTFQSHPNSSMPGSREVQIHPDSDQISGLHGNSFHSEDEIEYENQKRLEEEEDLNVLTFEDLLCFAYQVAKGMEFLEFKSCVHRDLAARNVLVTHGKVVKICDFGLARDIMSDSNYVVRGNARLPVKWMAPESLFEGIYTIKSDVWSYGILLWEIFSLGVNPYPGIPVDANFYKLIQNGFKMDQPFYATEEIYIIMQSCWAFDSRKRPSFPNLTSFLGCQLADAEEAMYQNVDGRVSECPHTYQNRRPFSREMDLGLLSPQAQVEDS
The experiment in a line: Reaction Biology NanoBRET target engagement assay in HEK-293 cells, FLT3. Particulars: NanoBRET FLT3 IC50, HEK-293 cells.

Setting [8] is: combination with (+)-BAY-1251152.
The mark [9] stands for this setting: combination with Eprenetapopt/APR-246.
The mark [10] stands for this setting: combination with Venetoclax (ABT-199).

Read-outs that look alike come from different tables or passages of the source.

T1 sequence (P51617 whole entry): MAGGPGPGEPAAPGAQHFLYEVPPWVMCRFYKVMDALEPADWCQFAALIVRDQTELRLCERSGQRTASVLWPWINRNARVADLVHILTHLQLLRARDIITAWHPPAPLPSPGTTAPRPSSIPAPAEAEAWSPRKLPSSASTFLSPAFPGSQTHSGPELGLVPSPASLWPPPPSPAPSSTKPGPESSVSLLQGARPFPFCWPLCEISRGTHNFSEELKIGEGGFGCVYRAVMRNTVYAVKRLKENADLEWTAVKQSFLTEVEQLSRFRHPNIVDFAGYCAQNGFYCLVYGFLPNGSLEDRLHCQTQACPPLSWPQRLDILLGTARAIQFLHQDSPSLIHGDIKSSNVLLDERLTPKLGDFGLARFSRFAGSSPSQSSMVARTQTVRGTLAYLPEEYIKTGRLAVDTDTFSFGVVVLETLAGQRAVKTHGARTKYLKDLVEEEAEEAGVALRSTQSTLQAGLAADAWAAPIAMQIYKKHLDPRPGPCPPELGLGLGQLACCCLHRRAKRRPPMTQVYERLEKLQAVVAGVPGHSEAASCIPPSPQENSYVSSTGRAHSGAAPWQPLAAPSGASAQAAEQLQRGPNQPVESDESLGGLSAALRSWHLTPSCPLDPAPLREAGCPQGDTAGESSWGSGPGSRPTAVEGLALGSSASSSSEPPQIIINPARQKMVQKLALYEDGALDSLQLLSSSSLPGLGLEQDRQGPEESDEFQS

Regarding `COc1cc2ncc(-c3ccnc(N[C@H]4CNC[C@@H]4F)n3)n2cc1C(C)(C)O` [Compound 43, 2-(3-(2-(((3S,4S)-4-fluoropyrrolidin-3-yl)amino)pyrimidin-4-yl)-7-methoxyimidazo[1,2-a]pyridin-6-yl)propan-2-ol], the IC50 at IRAK1 [1] is 0.7 nM; on IRAK4 [2] it was less than 0.5 nM; in the assay on MOLM14 D835Y cells, 11 nM; in the assay on MOLM14 F691L cells, 69 nM. For the same compound, the Kd on IRAK4 [3] is 0.081 nM; at IRAK1 [4] it was 0.33 nM.
Turning to `COc1cc2ncc(-c3ccnc(N[C@H]4CNCC[C@@H]4F)n3)n2cc1C(C)(C)O` [Compound 45, 2-(3-(2-(((3S,4S)-4-fluoropiperidin-3-yl)amino)pyrimidin-4-yl)-7-methoxyimidazo[1,2-a]pyridin-6-yl)propan-2-ol], the “Excess HSA Score” value with MOLM14(D835Y) cells (setting [8]) is given as 117.1; with MOLM14(D835Y) cells (combination with AMG-232) it was −212.5; in the assay on MOLM14(D835Y) cells (combination with AZD-5363) it was 384.6; with MOLM14(D835Y) cells (setting [9]), 477.7; with MOLM14(D835Y) cells (combination with Ivosidenib), −76.48; in the assay with MOLM14(D835Y) cells (combination with Lenalidomide), 515.9. For the same compound, the “Excess HSA Score” value with MOLM14(D835Y) cells (combination with Palbociclib) is listed as −172.2; in the assay on MOLM14(D835Y) cells (combination with Prednisolone), −357.5; with MOLM14(D835Y) cells (combination with SNDX-5613), 58.42; with MOLM14(D835Y) cells (combination with TNO-155), −372.6; with MOLM14(D835Y) cells (combination with Trametinib) it was −362.6; in the assay on MOLM14(D835Y) cells (combination with Ulixertinib), 288.2. Moreover, the “Excess HSA Score” value is listed as −803.3 in the assay with MOLM14(D835Y) cells (setting [10]); −402.7072 in the assay on THP1 cells (setting [8]); 138.2 with THP1 cells (combination with AMG-232); −206.1 in the assay on THP1 cells (combination with AZD-5363); 183 in the assay with THP1 cells (setting [9]); 93.15 in the assay with THP1 cells (combination with Ivosidenib). Moreover, the “Excess HSA Score” value in the assay with THP1 cells (combination with Lenalidomide) is given as 388.3; in the assay on THP1 cells (combination with Palbociclib), −236; in the assay on THP1 cells (combination with Prednisolone), 67.79; with THP1 cells (combination with SNDX-5613), 169.6; in the assay with THP1 cells (combination with TNO-155), −134.2061; with THP1 cells (combination with Trametinib) it was −226.2. Besides, the “Excess HSA Score” value with THP1 cells (combination with Ulixertinib) was 218.0361; in the assay on THP1 cells (setting [10]) it was −360.8. The Comments entry in the assay with MOLM14(D835Y) cells (combination with SNDX-5613) is reported as “Antagonistic”; in the assay on MOLM14(D835Y) cells (setting [10]) it was “Synergistic”; in the assay on THP1 cells (setting [8]) it was “Synergistic”; in the assay with THP1 cells (combination with Prednisolone), “Antagonistic”. Also, the IC50 was 2 nM at IRAK1 [1]; 0.7 nM on IRAK4 [2]; less than 0.5 nM at FLT3 [5]; 9 nM in the assay with MOLM14 D835Y cells; 43 nM in the assay with MOLM14 F691L cells; less than 0.5 nM against IRAK4 [6]. This compound also yielded an IC50 at FLT3 [7] of 28 nM.

As a reminder, the IC50 is the concentration at which inhibition is half-maximal. What is called Kd is the concentration at which binding is half-saturated. Read a high Kd as a looser complex.
